From patent US8735363B2, “Preparation and application of heparin silver” (priority 2005, dated 2014) come the findings set out here.

The subject of assay [1] is hyperplastic scar wound surface. Kind of assay: Animal model of hyperplastic scar (excised whole-thickness skin wound). Type of assay: in vivo, New-Zealand rabbit.
Method: The scar tissue was subjected to Masson staining and observed under light microscope, and the thickness of dermis (Da) of wound surface after epithelization and the thickness of dermis (Db) of adjacent normal tissue were measured.
Assay [2] deals with deep second degree scald wound surface. Kind of assay: Animal model of burn (deep second degree steam scald). In kind it is in vivo, Rats.
Method: After rats were wounded, samples were taken at intervals of time. The wet weight of wound surface tissue (Ga) and the tissue dry weight (Gb) after baking at 80° C. for 72 hours were measured by weighting method. The water content of wound surface was calculated as W=(Ga−Gb)/Ga×100%, wherein W represented the degree of edema.

Turning to heparin silver, the “Scar index, 60 days” value in assay [1] (60 days, scar index = (Da−Db)/Db, dermis thickness, Masson staining) is listed as 2.06 ± 0.83 (n = 6). Further, the “Scar index, 180 days” value in assay [1] (180 days, scar index = (Da−Db)/Db, dermis thickness, Masson staining) is recorded as 1.85 ± 0.52 (n = 6). The “Healing time of wound surface (days)” value in assay [1] (rabbit 2 cm×5 cm excision wound, dressing with powder changed once per week, healed = scab less than 5% of wound area) is listed as 21.4 ± 2.16 (n = 6) days. The “Water content of wound surface (W)” value in assay [2] (8 h after wounding, W=(Ga−Gb)/Ga×100%, degree of edema) is 80.25 ± 2.78 (n = 6) %; in assay [2] (24 h after wounding) it was 70.82 ± 3.56 (n = 6) %; in assay [2] (48 h after wounding) it was 70.16 ± 2.64 (n = 6) %; in assay [2] (72 h after wounding) it was 68.44 ± 1.32 (n = 5) %; in assay [2] (5 d after wounding), 67.61 ± 2.85 (n = 5) %; in assay [2] (7 d after wounding), 67.52 ± 1.36 (n = 5) %. Further, the “Hydroxyproline content of wound surface” value was 18.55 ± 2.13 (n = 5) ug/mL in assay [2] (1 d after wounding, chloramine T oxidization method); 20.45 ± 2.12 (n = 5) ug/mL in assay [2] (2 d after wounding); 22.04 ± 1.35 (n = 5) ug/mL in assay [2] (3 d after wounding); 23.27 ± 2.11 (n = 6) ug/mL in assay [2] (5 d after wounding); 23.96 ± 2.54 (n = 6) ug/mL in assay [2] (7 d after wounding); 26.87 ± 2.36 (n = 6) ug/mL in assay [2] (10 d after wounding). Moreover, the figures for the “Hydroxyproline content of wound surface” value in assay [2] (14 d after wounding) and in assay [2] (21 d after wounding) were 26.91 ± 2.14 (n = 6) ug/mL and 24.05 ± 1.74 (n = 7) ug/mL, respectively. Further, the “Healing Time (d)” value in assay [2] (rat 20% area deep second degree scald, powder dressing 0.5-1 mm changed once per day) is 21.5 ± 2.2 (n = 8) d. Further, the “effect in the treatment of burns and/or scalds (animal test)” value in assay [2] (summary statement) was “accelerating healing speed, reducing occurrence of infection and inflammation, and improving healing quality of wound surface”.
